Measured values: patent publication US20230293535A1, “ERBB/BTK INHIBITORS” (Dizal (Jiangsu) Pharmaceutical Co., Ltd., priority 2018, published 2023)

Tests used:
[1] = target: T1, human EGFR exon 20 V769_D770insASV (Homo sapiens, UniProt P00533, INS769ASV); assay: EGFR Exon20 ASV insertion cellular phosphorylation inhibition (MSD pEGFR Y1068/total EGFR); assay type: cell-based; conditions: Ba/F3 EGFR ASV ins cells, 4 h compound, p-EGFR(Y1068)/total EGFR;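 note: electrochemiluminescent readout on an MSD SECTOR Imager, IL3-independent transduced cells in medium with 1% FBS, compound concentration series at 37 °C and 5% CO2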
T1 construct: expressed in transfected cells; host or cells: Ba/F3 (DSMZ ACC-300), lentiviral transduction, puromycin selection, IL3 depletion
Protocol: To generate the EGFR exon 20 V769_D770insASV transduced Ba/F3 cell line, the parental Ba/F3 cells were infected with the recombinant EGFR V769_D770insASV lentivirus and then followed by 1 µg/ml of puromycin selection and IL3 depletion. The resulting cell line expresses constitutively phosphorylated EGFR protein and proliferates in the absence of IL3, which could be used for in vitro PD and anti-proliferation assays.
(§1) One day before the test, WT or mutant cells were seeded in 96 well plates at appropriate concentrations with corresponding growth media supplemented with 1% FBS, and incubated overnight. The next day, tested compounds at a series of concentrations were added into each individual well of the plates, and the plates were incubated for 4 h at 37° C. with 5% CO2.
The EGFR (Y1068) phosphorylation level (activity) of cells in each well were then measured with MSD kit named “MULTI-SPOT®96 4-Spot HB Prototype EGFR Triplex [sequence]: pEGFR(Tyr1068),pEGFR(Tyr1173), Total EGFR” according to the manufacturer’s instruction (MESO SCALE DISCOVERY, Cat# N45ZB-1). The assay is an electrochemiluminescent method for determining both phosphorylated and total EGFR of cells with an MSD SECTOR® Imager and the ratio of p-EGFR/total EGFR can be generated by the machine. The Her2 (Y1248) phosphorylation level (activity) of cells in each well were measured with MSD Kit named “Phospho-ErbB2 (Tyr1248) Assay Whole Cell Lysate Kit” according to the manufacturer’s instruction (MESO SCALE DISCOVERY, Cat# K151CLD-3). The assay is an electrochemiluminescent method (MESO SCALE DISCOVERY) for determining both phosphorylated and total Her2 of cells with an MSD SECTOR® Imager and then the ratio of p-Her2/total Her2 can be generated by the machine.

[2] = target: T2, human EGFR exon 20 H773_V774insNPH (Homo sapiens, UniProt P00533, INS773NPH); assay: EGFR Exon20 NPH insertion cellular phosphorylation inhibition (MSD pEGFR Y1068/total EGFR); assay type: cell-based; conditions: Ba/F3 EGFR NPH ins cells, 4 h compound, p-EGFR(Y1068)/total EGFR;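 note: IL3-independent Ba/F3 cells with constitutively phosphorylated EGFR, compound exposure at 37 °C under 5% CO2, electrochemiluminescent MSD measurement of the p-EGFR to total EGFR ratio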
T2 construct: host or cells: Ba/F3
T2 sequence (P00533 with tags, fused parts or gaps INS773NPH): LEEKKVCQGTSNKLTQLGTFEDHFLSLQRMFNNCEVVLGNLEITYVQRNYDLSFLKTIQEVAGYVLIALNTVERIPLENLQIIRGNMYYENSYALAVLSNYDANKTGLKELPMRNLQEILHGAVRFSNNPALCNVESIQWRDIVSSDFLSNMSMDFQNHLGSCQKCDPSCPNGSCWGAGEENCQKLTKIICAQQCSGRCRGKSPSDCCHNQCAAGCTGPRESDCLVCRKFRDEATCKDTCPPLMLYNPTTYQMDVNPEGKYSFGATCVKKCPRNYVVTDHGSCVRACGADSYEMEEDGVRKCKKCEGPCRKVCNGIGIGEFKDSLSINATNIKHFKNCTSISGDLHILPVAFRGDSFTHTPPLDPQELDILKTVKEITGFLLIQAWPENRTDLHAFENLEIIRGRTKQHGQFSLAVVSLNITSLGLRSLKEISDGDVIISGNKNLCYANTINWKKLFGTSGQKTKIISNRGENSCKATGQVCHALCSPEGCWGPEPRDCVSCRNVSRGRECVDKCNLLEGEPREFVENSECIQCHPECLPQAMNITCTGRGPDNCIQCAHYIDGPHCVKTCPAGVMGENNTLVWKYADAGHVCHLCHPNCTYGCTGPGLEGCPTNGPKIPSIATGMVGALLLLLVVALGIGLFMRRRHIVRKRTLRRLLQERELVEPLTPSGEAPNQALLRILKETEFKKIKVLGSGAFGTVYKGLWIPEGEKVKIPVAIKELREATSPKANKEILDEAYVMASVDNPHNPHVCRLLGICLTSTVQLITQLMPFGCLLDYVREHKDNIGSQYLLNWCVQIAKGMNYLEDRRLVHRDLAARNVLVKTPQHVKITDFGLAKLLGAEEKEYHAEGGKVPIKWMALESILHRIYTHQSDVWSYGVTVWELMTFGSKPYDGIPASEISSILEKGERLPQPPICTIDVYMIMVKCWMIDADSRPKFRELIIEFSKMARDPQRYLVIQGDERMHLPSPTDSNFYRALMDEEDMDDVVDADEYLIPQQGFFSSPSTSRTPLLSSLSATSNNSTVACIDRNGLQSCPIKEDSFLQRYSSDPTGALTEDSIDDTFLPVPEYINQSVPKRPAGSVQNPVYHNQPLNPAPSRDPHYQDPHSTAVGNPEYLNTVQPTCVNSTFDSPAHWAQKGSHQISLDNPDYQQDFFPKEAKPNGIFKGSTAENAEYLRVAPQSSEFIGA
Protocol: as §1
The EGFR (Y1068) phosphorylation level (activity) of cells in each well were then measured with MSD kit named “MULTI-SPOT®96 4-Spot HB Prototype EGFR Triplex [sequence]: pEGFR(Tyr1068),pEGFR(Tyr1173), Total EGFR” according to the manufacturer’s instruction (MESO SCALE DISCOVERY, Cat# N45ZB-1). The assay is an electrochemiluminescent method for determining both phosphorylated and total EGFR of cells with an MSD SECTOR® Imager and the ratio of p-EGFR/total EGFR can be generated by the machine.

[3] = target: T3, human Her2 exon 20 insertion mutation YVMA (Homo sapiens, UniProt P04626, INS775YVMA); assay: Her2 Exon 20 YVMA insertion cellular phosphorylation inhibition (MSD p-Her2 Y1248/total Her2); assay type: cell-based; conditions: Her2 YVMAins cells, 4 h compound;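 note: lentivirally transduced NIH-3T3 cells in 1% FBS medium, electrochemiluminescent MSD read-out, graded compound concentrations at 37 °C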
T3 construct: expressed in transfected cells; host or cells: NIH-3T3, lentiviral transduction, puromycin selection
T3 sequence (P04626 with tags, fused parts or gaps INS775YVMA): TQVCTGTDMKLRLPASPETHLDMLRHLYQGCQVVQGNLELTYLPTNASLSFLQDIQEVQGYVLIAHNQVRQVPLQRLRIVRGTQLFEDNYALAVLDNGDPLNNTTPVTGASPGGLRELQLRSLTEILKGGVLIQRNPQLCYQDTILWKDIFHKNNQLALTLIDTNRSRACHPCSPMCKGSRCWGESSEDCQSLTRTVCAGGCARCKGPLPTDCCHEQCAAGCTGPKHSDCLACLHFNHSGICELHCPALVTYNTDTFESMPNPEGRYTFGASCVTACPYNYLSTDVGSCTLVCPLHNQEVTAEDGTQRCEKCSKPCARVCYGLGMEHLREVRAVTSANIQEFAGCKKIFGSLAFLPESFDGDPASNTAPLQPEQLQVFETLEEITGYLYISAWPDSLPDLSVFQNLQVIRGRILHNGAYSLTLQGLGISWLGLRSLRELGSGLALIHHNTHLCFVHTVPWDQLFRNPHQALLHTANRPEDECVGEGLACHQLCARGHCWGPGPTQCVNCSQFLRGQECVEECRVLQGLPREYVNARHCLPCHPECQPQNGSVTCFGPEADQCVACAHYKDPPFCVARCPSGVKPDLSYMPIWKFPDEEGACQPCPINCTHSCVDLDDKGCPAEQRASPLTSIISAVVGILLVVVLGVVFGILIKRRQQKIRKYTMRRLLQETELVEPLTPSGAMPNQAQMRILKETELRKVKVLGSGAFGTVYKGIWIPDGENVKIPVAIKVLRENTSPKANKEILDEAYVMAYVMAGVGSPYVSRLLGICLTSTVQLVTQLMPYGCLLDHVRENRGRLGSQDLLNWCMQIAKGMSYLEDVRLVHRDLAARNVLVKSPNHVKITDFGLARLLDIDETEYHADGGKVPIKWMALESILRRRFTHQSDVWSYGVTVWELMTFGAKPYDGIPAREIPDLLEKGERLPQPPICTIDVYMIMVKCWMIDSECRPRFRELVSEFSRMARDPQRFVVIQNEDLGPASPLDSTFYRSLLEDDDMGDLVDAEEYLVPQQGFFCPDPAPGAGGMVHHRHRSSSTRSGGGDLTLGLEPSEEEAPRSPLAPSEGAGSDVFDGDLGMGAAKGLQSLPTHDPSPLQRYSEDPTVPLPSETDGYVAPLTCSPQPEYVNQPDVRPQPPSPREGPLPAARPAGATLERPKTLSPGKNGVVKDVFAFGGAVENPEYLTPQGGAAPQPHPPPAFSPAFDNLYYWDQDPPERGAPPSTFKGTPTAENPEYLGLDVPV

[4] = In vitro rat hepatocytes clearance assay; conditions: male, rat, cryopreserved rat hepatocytes (suspension), rat hepatocytes Clint (µL/min/10^6cells), 1 µM-range incubation up to 100 min
Protocol: The protocol for rat/human hepatocytes metabolic stability assay is employed to determine the clearance of the compounds of the present disclosure in vitro.
Rat hepatocytes in male gender and human hepatocytes in mixed gender were obtained from commercial vendors (e.g., BioreclamationIVT) and stored at -150° C. prior to use. 10 mM stock solutions of tested compounds were prepared in DMSO. Thawing medium and supplement incubation medium (serum-free) were placed in a 37° C. water bath for at least 15 minutes prior to use. Stock solutions were diluted to 100 µM by combining 198 µL acetonitrile and 2 µL of 10 mM stock solution.
Vials of cryopreserved hepatocytes were removed from storage, ensured that vials remain at cryogenic temperatures. The vials were thawed in a 37° C. water bath with gently shaking. Vials were kept in water bath until all ice crystals had dissolved and were no longer visible. Vials were sprayed with 70% ethanol before being transferred to a biosafety cabinet. And then the contents were poured into the 50 mL thawing medium conical tube. Vials were centrifuged at 100 g for 10 minutes at room temperature.
Cell viability and density were counted using a Trypan Blue exclusion, and then cells were diluted with serum-free incubation medium to a working cell density of 1 × 10^6 viable cells/ml. […] The inactivated hepatocytes were used to prepare negative samples, which were used to exclude the misleading factor that resulted from instability of chemical itself.
Aliquots of 247.5 µL hepatocytes were dispensed into each well of a 96-well non-coated plate. The plate was placed in the incubator on an orbital shaker for approximately 10 minutes. Aliquots of 2.5 µL of the 100 µM test compounds were added into respective wells of the non-coated 96-well plate to start the reaction. This assay was performed in duplicate. The plate was incubated in the incubator on an orbital shaker for the designed time points. […] Samples were centrifuges for 20 minutes at 4000 g and aliquots of 100 µL of the supernatants were used for LC-MS/MS analysis for measurement of test compounds
In vitro hepatocyte clearance was estimated based on determination of elimination half-life (T½) of compounds disappearance from their initial concentrations. Peak area ratios of each compound (test or control) to IS was calculated. Ln (%Control) versus Incubation Time (min) curve was plotted, and the slope of a linear fitting line was calculated.

Ba/F3 EGFR NPH ins cells = assay: Cell proliferation, Ba/F3 EGFR NPH ins (CellTiter-Glo, 72 h); assay type: cell-based; conditions: Ba/F3 EGFR, 72 h, Ba/F3 EGFR NPH ins, 72 h proliferation; read-out: EGFR Exon20 NPH insertion GI50;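 note: IL3-independent cells carrying constitutively phosphorylated EGFR, compound dilution series, viable cells quantified by ATP luminescence, growth relative to DMSO wells after subtracting pre-dosing (day 0) baseline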
[5] = tested on: Her2 exon 20 insertion YVMA transduced NIH-3T3 cell line; assay: Cell proliferation, Her2 YVMAins NIH-3T3 (CellTiter-Glo, 72 h); assay type: cell-based; conditions: Mus musculus, NIH3T3, 72 h, Her2 YVMAins cells, 72 h proliferation; read-out: Her2 Exon 20 YVMA insertion GI50;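 note: viable cells quantified by ATP luminescence, growth over a day-zero baseline plate expressed as percent of DMSO control growth, compound dilution series in 10% FBS medium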
Protocol: WT or mutant cells were seeded in 384 well plates at appropriate concentrations with corresponding growth media supplemented with 10% FBS, for each experiment, identical plates were prepared in duplicates, and the plates were incubated overnight. On the next day, one of each duplicated plates was dosed with tested compounds at a series of concentrations, and another one of the duplicated plate was analysied for G0 value. The dosed plates were incubate for another 72 h at 37° C. with 5% CO2 and the number of viable cells in each well of the G0 plates or the dosed plates were measured by CellTiter-Glo® Luminescent Cell Viability Assay (Promega). This assay is a luminescent method for determining the number viable cells through measurement of cellular ATP concentration by detection of luciferase activity. Detection reagents (15 µl) was dispensed into per well, and the plates were incubate for 30 min at room temperature. Then, the luminescence in each well was measured using the Envision plate reader (PerkinElmer). The percentage of proliferation was calculated based on the formula: %Proliferation= 100 × (G3 value of sample well-Go value)/(G3 value of DMSO control-Go value).

Phospho-BTK (Tyr223) = target: T4, Phospho-BTK (Tyr223) (Homo sapiens, UniProt Q06187); assay: p-BTK assay in Ramos cells (HTRF Phospho-BTK Tyr223); assay type: cell-based; conditions: pervanadate stimulated, read-out: p-BTK (Romas) IC50
T4 construct: endogenous in cells; host or cells: Ramos
T4 sequence (Q06187 whole entry): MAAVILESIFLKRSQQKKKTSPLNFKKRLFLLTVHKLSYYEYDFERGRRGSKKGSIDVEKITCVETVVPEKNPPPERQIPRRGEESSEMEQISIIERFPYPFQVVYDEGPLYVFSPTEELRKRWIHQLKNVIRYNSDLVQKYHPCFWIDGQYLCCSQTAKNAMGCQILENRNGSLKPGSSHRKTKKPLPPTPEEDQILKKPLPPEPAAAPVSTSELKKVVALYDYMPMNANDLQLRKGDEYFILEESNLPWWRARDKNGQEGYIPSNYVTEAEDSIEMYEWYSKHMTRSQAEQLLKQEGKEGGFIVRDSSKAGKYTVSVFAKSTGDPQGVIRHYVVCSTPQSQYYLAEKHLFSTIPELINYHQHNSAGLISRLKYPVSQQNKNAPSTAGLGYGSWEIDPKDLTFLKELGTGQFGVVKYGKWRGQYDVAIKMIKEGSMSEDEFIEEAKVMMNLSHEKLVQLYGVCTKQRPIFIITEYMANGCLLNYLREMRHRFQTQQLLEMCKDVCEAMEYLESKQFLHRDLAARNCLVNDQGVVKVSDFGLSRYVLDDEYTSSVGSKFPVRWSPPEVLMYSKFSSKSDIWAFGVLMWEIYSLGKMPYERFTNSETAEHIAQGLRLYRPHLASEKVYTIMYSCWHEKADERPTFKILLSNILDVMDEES
Protocol: The assay plates were then incubated for 30 minutes at 37° C., 5% CO2. 300 uM Per vanadate (3X) was added to each well and the assay plates were again incubated for 60 minutes at 37° C., 5% CO2. Phospho-BTK (Tyr223) is detected using the HTRF® reagents (Cisbio) according to the manufacturer’s one-plate assay protocol.

Ba/F3 EGFR ASV ins cells = assay: Cell proliferation, Ba/F3 EGFR ASV ins (CellTiter-Glo, 72 h); assay type: cell-based; conditions: Ba/F3 EGFR, 72 h, Ba/F3 EGFR ASV ins, 72 h proliferation; read-out: EGFR Exon20 ASV insertion GI50;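 note: IL3-independent Ba/F3 cells transduced with EGFR V769_D770insASV, cellular ATP luminescence after compound exposure, growth relative to DMSO control with the day-0 baseline reading subtracted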
WT EGFR = target: T5, WT EGFR (Homo sapiens, UniProt P00533); assay: WT EGFR cellular phosphorylation inhibition in A-431 (hEGF stimulated, MSD); assay type: cell-based; conditions: A431 cells, 4 h compound, then 100 ng/ml hEGF 10 min;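 note: electrochemiluminescence read-out of EGFR Tyr1068 phosphorylation expressed as ratio to total EGFR, cells kept in medium with 1% FBS, compounds tested as a concentration series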
T5 construct: host or cells: A-431
T5 sequence (P00533 25-1210): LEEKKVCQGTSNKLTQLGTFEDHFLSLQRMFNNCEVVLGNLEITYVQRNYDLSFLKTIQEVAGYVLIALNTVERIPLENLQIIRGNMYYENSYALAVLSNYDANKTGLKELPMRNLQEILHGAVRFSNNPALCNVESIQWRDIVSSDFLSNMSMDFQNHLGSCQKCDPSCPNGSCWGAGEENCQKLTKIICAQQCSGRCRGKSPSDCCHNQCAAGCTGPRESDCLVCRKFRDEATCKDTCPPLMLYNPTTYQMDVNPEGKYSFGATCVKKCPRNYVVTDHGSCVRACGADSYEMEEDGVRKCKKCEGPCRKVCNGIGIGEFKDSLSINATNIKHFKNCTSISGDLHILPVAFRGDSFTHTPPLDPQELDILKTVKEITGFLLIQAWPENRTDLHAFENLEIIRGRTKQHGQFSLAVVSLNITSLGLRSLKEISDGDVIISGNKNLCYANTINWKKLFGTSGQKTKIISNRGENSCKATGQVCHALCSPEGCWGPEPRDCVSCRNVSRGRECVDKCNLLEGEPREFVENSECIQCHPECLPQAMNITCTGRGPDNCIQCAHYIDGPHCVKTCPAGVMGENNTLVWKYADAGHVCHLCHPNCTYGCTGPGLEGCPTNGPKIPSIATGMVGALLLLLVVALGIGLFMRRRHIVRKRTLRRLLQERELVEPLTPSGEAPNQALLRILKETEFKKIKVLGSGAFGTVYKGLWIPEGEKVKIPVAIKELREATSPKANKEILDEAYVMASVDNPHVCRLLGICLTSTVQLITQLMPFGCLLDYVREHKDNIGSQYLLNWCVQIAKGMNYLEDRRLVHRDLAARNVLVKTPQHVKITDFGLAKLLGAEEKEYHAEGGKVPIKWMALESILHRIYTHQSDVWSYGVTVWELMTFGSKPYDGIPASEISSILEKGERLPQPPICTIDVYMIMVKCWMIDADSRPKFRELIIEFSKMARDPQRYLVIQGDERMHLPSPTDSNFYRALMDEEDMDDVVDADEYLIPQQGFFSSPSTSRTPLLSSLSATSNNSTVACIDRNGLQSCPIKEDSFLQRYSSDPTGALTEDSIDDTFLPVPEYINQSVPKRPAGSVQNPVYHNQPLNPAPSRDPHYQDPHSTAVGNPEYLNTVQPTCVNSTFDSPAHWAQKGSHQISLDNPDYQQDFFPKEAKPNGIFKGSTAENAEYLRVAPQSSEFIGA

C=CC(=O)Nc1cc(Nc2nccc(Nc3cc(Cl)c(F)cc3C(C)(C)O)n2)c(OC)cc1N1CC[C@@H](N(C)C)C1 [Compound 52, (R)-N-(5-(4-(5-chloro-4-fluoro-2-(2-hydroxypropan-2-yl)phenylamino)pyrimidin-2-ylamino)-2-(3-(dimethylamino)pyrrolidin-1-yl)-4-methoxyphenyl)a crylamide]
IC50 [1]: 20.4 nM | IC50 [2]: 20.4 nM | IC50 [3]: 7.5 nM | hepatocyte CLint at 1 µM [4]: 13.3 µL/min/1e6 cells | GI50 (Ba/F3 EGFR NPH ins cells): 60.4 nM | GI50 [5]: 101 nM | IC50 (Phospho-BTK (Tyr223)): 2.9 nM | GI50 (Ba/F3 EGFR ASV ins cells): 83.2 nM | IC50 (WT EGFR): 80.4 nM
